Measurements from PubChem BioAssay (NCI).
Where “and” joins values, the source holds several entries; their conditions need not be identical. Equal entries are not always repeated.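 Assay format: 96-well plates, 48-hour exposure. GI50 marks 50% less growth. TGI is the concentration that stops growth completely.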

What was measured:
Test in all cases: inhibition of tumour cell growth, NCI panel, 48 h
KM12 colon = system: KM12 colon
SF-268 CNS = system: SF-268 CNS
CAKI-1 renal = system: CAKI-1 renal
CCRF-CEM leukemia = system: CCRF-CEM leukemia
SNB-19 CNS = system: SNB-19 CNS
MOLT-4 leukemia = system: MOLT-4 leukemia
SN12C renal = system: SN12C renal
HOP-92 NSCLC = system: HOP-92 NSCLC
EKVX NSCLC = system: EKVX NSCLC
SK-MEL-5 melanoma = system: SK-MEL-5 melanoma

Structure (SMILES)	TGI (KM12 colon)	TGI (SF-268 CNS)	TGI (CAKI-1 renal)	TGI (CCRF-CEM leukemia) [µM]	TGI (SNB-19 CNS)	TGI (MOLT-4 leukemia) [µM]	TGI (SN12C renal)	TGI (HOP-92 NSCLC)	TGI (EKVX NSCLC)	TGI (SK-MEL-5 melanoma)	GI50 (KM12 colon) [µM]	GI50 (SF-268 CNS) [µM]	GI50 (CAKI-1 renal)	GI50 (CCRF-CEM leukemia) [µM]	GI50 (SNB-19 CNS) [µM]	GI50 (MOLT-4 leukemia) [µM]	GI50 (SN12C renal) [µM]	GI50 (HOP-92 NSCLC)	GI50 (EKVX NSCLC)	GI50 (SK-MEL-5 melanoma)
Nc1ncnc2c1ncn2COC/C=C/I	> 100 µM	> 100 µM	> 100 µM	> 100	> 100 µM	> 100	> 100 µM	> 100 µM	> 100 µM	> 100 µM										
NC(=S)N=Nc1c(O)[nH]c2ccccc12	> 1000 µM	989 µM	251 µM	> 1000	722 µM	> 1000	331 µM	224 µM	318 µM	651 µM	217	189	32 µM and 73.4 µM	253	262	243	154	64.8 µM and 106 µM	19.2 µM and 123 µM	55.5 µM and 201 µM
CCOc1cc[n+](C(=C=[N-])C#N)cc1	> 100 µM	> 100 µM	> 100 µM	> 100	> 100 µM	> 100	> 100 µM	> 100 µM	> 100 µM	> 100 µM										
COC(=O)C1=C(O)C(C(=O)OC)[C@@]2(O)[C@@H](C(=O)OC)C(c3ccccc3Cl)C[C@@H]1[C@@H]2C(=O)OC (stereo partly specified)	21.2 µM	65.3 µM	11.2 µM	5.12	39.5 µM	20.7	19.8 µM	54.2 µM	38.3 µM	24.2 µM	6.5	14.5	3.47 µM	1.64	16.2	3.31	3.96	16.1 µM	19.4 µM	11.1 µM
Cc1ccccc1NC(=O)CC(=O)n1nc(-c2ccccc2)c(N=Nc2ccc([N+](=O)[O-])cc2)c1-c1ccccc1	61.5 µM	> 100 µM	40.4 µM	> 100	> 100 µM	64.8	58.4 µM	34 µM	88.1 µM	25.9 µM										
COC(=O)CCc1c(/C=C2\N=C(c3ccc[nH]3)C=C2OC)[nH]c(C)c1C(=O)OCc1ccccc1	4.98 µM	8.23 µM	1.59 µM	> 58	> 100 µM	5.1	2.5 µM	0.73 µM	5.29 µM	1.75 µM	0.29	0.514	0.272 µM	0.0933	1.17	0.23	0.442	0.197 µM	0.733 µM	0.47 µM
O=C1C=C(OCC=C(Cl)Cl)C(=O)c2ccccc21	> 90.7 µM	> 85.7 µM	> 100 µM	> 19.7	> 100 µM	> 24	8.27 µM	9.28 µM	28.2 µM	3.85 µM	8.41	6.57	23.3 µM	3.03	> 91.1	2.34	2.61	2.68 µM	3.33 µM	1.53 µM
CCCCCCCCCCCCCCCC(N)c1ccccc1 (stereo unspecified)	3.29 µM	3.26 µM	2.96 µM	4.33		3.42	3.51 µM	3.23 µM	3.01 µM	3.23 µM	1.77	1.63	1.53 µM	1.98		1.58	1.8	1.57 µM	1.59 µM	1.67 µM
CC(=O)N1CCN(C=S)CC1	> 100 µM	> 100 µM	> 100 µM	> 100	> 100 µM	> 100	> 100 µM	> 100 µM	> 100 µM	> 100 µM										
O=C1/C(=C/c2cccc(F)c2)CN(C(=O)C(Cl)Cl)C/C1=C\c1cccc(F)c1	0.476 µM	1.75 µM	1.44 µM	17.7	0.604 µM	3.6	0.475 µM	1.44 µM	0.804 µM	0.431 µM	0.172	0.427	0.389 µM	0.0345	0.204	0.0905	0.189	0.499 µM	0.263 µM	0.2 µM
CN(C)c1ccc(/C=c2\sc3nnc(Cc4ccccc4)n3c2=O)cc1	> 100 µM	> 10 µM and 57.8 µM	> 100 µM	> 100	> 100 µM	> 100	> 100 µM	> 100 µM	> 100 µM	> 100 µM	> 100	> 10	> 100 µM	> 100	> 100	> 100	> 100		> 100 µM	> 100 µM
C[C@H](c1ccc(Cl)cc1[N+](=O)[O-])N1C(=O)c2cc(I)ccc2NC(=O)[C@H]1c1ccc(Cl)cc1	> 100 µM	> 100 µM	> 100 µM	> 100	> 100 µM	> 100	> 100 µM	> 100 µM	> 100 µM	> 100 µM	> 100	> 100	4.2 µM	> 100	> 100	8.76	> 100	2.79 µM	4.98 µM	> 100 µM
CN/N=C(/CC(=O)c1sc(NNC(C)=O)nc1C)C(=O)Nc1ccc(OC)cc1OC	> 100 µM	> 100 µM	> 100 µM	> 100	> 100 µM	> 100	> 100 µM	> 100 µM	> 100 µM	> 100 µM										
O=[N+]([O-])c1ccc2nc(=S)[nH]n2c1	> 100 µM	> 100 µM	> 100 µM	> 100	> 100 µM	> 100	> 100 µM	> 100 µM	> 100 µM	> 100 µM										
Nc1ncnc2c1ncn2C1OC(C(=O)OCCO)C(O)C1O (stereo unspecified)	> 100 µM	> 100 µM	> 100 µM	> 100	> 100 µM	> 100	> 100 µM	> 100 µM	> 100 µM	> 100 µM										
CCCCCCCCC(=O)NCCN(CCN)C(=O)CCCCCCCC	6.01 µM	17.5 µM	32.9 µM	8.19	17.7 µM	8.57	24.7 µM	37.1 µM	36.2 µM	26.4 µM										
CN1CCN(Cc2ccc(NC(=O)c3cncc(C#Cc4ncc5ccccn45)c3)cc2C(F)(F)F)CC1	2.9 µM	7.22 µM	3.99 µM	8.3	8.44 µM	5.82	4.41 µM	2.37 µM	5.54 µM	6.37 µM	0.0112	2.06	0.913 µM	0.962	3.09	0.892	1.26	0.762 µM	1.3 µM	3.13 µM

Structure (SMILES)	TGI (KM12 colon)	TGI (SF-268 CNS)	TGI (CAKI-1 renal)	TGI (CCRF-CEM leukemia) [µM]	TGI (SNB-19 CNS)	TGI (MOLT-4 leukemia) [µM]	TGI (SN12C renal)	TGI (HOP-92 NSCLC)	TGI (EKVX NSCLC)	TGI (SK-MEL-5 melanoma)	GI50 (KM12 colon) [µM]	GI50 (SF-268 CNS) [µM]	GI50 (CAKI-1 renal)	GI50 (CCRF-CEM leukemia) [µM]	GI50 (SNB-19 CNS) [µM]	GI50 (MOLT-4 leukemia) [µM]	GI50 (SN12C renal) [µM]	GI50 (HOP-92 NSCLC)	GI50 (EKVX NSCLC)	GI50 (SK-MEL-5 melanoma)
COn1cc(C(=O)N=C(SC)SC)c2ccccc21	52.7 µM	> 100 µM	63.8 µM	91	> 100 µM	30.1	74.3 µM	> 100 µM	77.5 µM	34.4 µM	20.3	> 100	22.7 µM	22.3	40.2	9.42	22.4	27.7 µM	25 µM	15.7 µM
CC(=O)N1c2ccc(-c3ccc(C(=O)O)cc3)cc2[C@H](Nc2ccc(Cl)cc2)C[C@@H]1C	20.2 µM	> 90.9 µM	> 100 µM	30.3	> 100 µM	39.2	99 µM	13.3 µM	> 64 µM	12.6 µM	0.924	5.76	0.0457 µM	1.63	1.06	1.79	3.89	0.024 µM	0.452 µM	0.357 µM
N#CC12CC3(CCC1CCC1(C2)OCCO1)OCCO3 (stereo unspecified)	> 100 µM	> 100 µM	> 100 µM	> 100	> 100 µM	> 100	> 100 µM	> 100 µM	> 100 µM	> 100 µM										
CC(=O)Nc1ccccc1S(=O)c1ccccc1 (stereo unspecified)	> 100 µM	> 100 µM	> 100 µM	> 100	> 100 µM	> 100	> 100 µM	> 100 µM	> 100 µM	> 100 µM										
COc1ccc(-c2cc3c(N)ncnc3o2)cc1	> 25 µM	> 25 µM	> 25 µM	> 25	> 25 µM	> 25	> 25 µM	> 25 µM	> 25 µM	> 25 µM	> 25	21.3	17.6 µM	> 25	> 25	> 25	14.8	17.1 µM	3.59 µM	> 22.4 µM
COC(=O)C(C(=O)C(=O)Nc1ccc(N)cc1[N+](=O)[O-])c1nc2ccc(Cl)cc2[nH]c1=O (stereo unspecified)	> 100 µM	> 100 µM	> 100 µM	> 100	> 100 µM	> 100	> 100 µM	> 100 µM	> 100 µM	> 100 µM										
COc1ccc2c(c1)C(=O)c1c-2n(CCCNCCO)c(=O)c2cc([N+](=O)[O-])ccc12	0.739 µM	0.378 µM	0.0602 µM	< 0.01	19.9 µM	< 0.01	4.15 µM	0.149 µM	4.77 µM	< 0.0251 µM	0.0255	< 0.01	< 0.01 µM	< 0.01	< 0.01	< 0.01	< 0.01	< 0.0108 µM	0.0733 µM	< 0.01 µM
CCC(=O)OCN1C(=O)C=CC1=O	35.1 µM and 30.8 µM	36.9 µM and 41.3 µM	25.3 µM and 9.35 µM	1.84	> 100 µM and 32.5 µM		30.5 µM and 35.6 µM	16.7 µM and 31.6 µM	32.4 µM and 42.5 µM	42.5 µM and > 58.1 µM	19.3	19.1	10.5 µM		> 100	3.32	16.2	2.65 µM	16.8 µM	18.9 µM
O=C(OCc1ccccc1)c1ccccc1-c1c2ccc(=O)cc-2oc2cc(OCc3ccccc3)ccc12	31.3 µM	> 100 µM	58.5 µM	36.8	> 100 µM	6.44	74.4 µM	17.9 µM	> 100 µM	17.8 µM										
CC1=C(C(=O)NCc2ccccc2)C(c2ccccc2O)C(C(=O)NCc2ccccc2)=C(C)N1	31.5 µM	55.3 µM	44.3 µM	82.9	42.4 µM	> 100	32.3 µM	48.7 µM	45.6 µM	28.6 µM										
CCCCCCC(=O)CC(=O)C(=O)Nc1ccccc1C	> 100 µM	> 100 µM	> 100 µM	> 100	> 100 µM	> 100	> 100 µM	> 100 µM	> 100 µM	> 100 µM										
CC1CC2(C)CC(=O)C1C1C(=O)N(CCN3CCOCC3)C(=O)C12 (stereo unspecified)	> 100 µM	> 100 µM	> 100 µM	> 100	> 100 µM	> 100	> 100 µM	> 100 µM	> 100 µM	> 100 µM	> 100	> 100	> 100 µM	> 100	> 100	> 100	> 100	> 100 µM	> 100 µM	> 100 µM
NNC(=O)N/N=C1/C(=O)N(c2ccc(Cl)c(Cl)c2)C(=O)C(=O)C1c1nc2ccccc2o1 (stereo unspecified)		> 100 µM	> 100 µM	> 100	> 100 µM	> 100	> 100 µM	> 100 µM	> 100 µM	> 100 µM										
CCCNC(=O)Nc1ccc2c(c1)Cc1cc(N(CCCl)CCCl)ccc1-2	56.5 µM	> 100 µM	> 100 µM	> 100	94.8 µM		> 100 µM	67.8 µM	77.4 µM	33 µM										
NCCNc1ncnc2ccc(Cl)cc12	> 100 µM	> 100 µM	> 100 µM	> 100	> 100 µM		> 100 µM	> 100 µM	> 100 µM	> 100 µM										
CC(=O)OC1(C#N)CC2OC1C1NC21 (stereo unspecified)		> 100 µM	> 100 µM	> 100	> 100 µM	> 100	> 100 µM	> 100 µM	> 100 µM	> 100 µM										
